How the values were obtained:
Format in all cases: in vivo
[1] = system: sedge, umbrella (small-flower umbrella sedge, Cyperus difformis); test: Test B flooded paddy test; settings: Cyperus difformis, Flood, 250 g ai/ha; scale of 0 to 100 where 0 is no effect and 100 is complete control; read-out: Sedge, Umbrella plant response rating
Outline: (§1)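 Rating scale 0–100 (visual, vs untreated controls) after a 13–15 d greenhouse period; application to the flood layer, 3 cm above soil and maintained; plants at 2-leaf stage when treated.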

rice (Oryra sativa) = test: Test B flooded paddy test; settings: Oryza sativa, Flood, 250 g ai/ha; scale of 0 to 100 where 0 is no effect and 100 is complete control; read-out: Rice plant response rating
Outline: as §1

[2] = system: barnyardgrass (Echinochloa crus-galli); test: Test B flooded paddy test; settings: Echinochloa crus-galli, Flood, 250 g ai/ha; scale of 0 to 100 where 0 is no effect and 100 is complete control; read-out: Barnyardgrass plant response rating
Outline: as §1

[3] = system: ducksalad (Heteranthera limosa); test: Test B flooded paddy test; settings: Heteranthera limosa, Flood, 250 g ai/ha; scale of 0 to 100 where 0 is no effect and 100 is complete control; read-out: Ducksalad plant response rating
Outline: as §1

[4] = system: ryegrass, Italian (Italian ryegrass, Lolium multiflorum); test: Test A preemergence; settings: Lolium multiflorum, pre-emergence, 240 h; for pest or weed control at 125 g/ha: 125 g ai/ha, preemergence, visual rating after approx. 10 d, 0 to 100 scale where 0 is no effect and 100 is complete control; for pest or weed control at 125 g/ha / pest or weed control at 31 g/ha: read-out: Plant response rating, Ryegrass, Italian; for pest or weed control at 500 g/ha: 500 g ai/ha, visual injury vs untreated controls after approximately 10 d, read-out: Ryegrass, Italian plant response rating (0 to 100 scale where 0 is no effect and 100 is complete control); for pest or weed control at 500 g/ha / pest or weed control at 31 g/ha: Preemergence; for pest or weed control at 31 g/ha: 31 g ai/ha, 0 to 100 scale (0 no effect, 100 complete control)
Outline: (§2)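 Treatment is preemergence as a directed soil spray after planting, or postemergence at the one- to two-leaf stage, with test chemical in a non-phytotoxic solvent mixture plus surfactant. Plants stay in the greenhouse about 10 d before visual injury scoring on a 0 to 100 scale versus untreated controls.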

Kochia (Kochia scoparia) [5] = test: Test A preemergence; settings: Bassia scoparia, pre-emergence, 240 h; for pest or weed control at 125 g/ha: 125 g ai/ha, preemergence, visual rating after approx. 10 d, 0 to 100 scale where 0 is no effect and 100 is complete control; for pest or weed control at 125 g/ha / pest or weed control at 31 g/ha: read-out: Plant response rating, Kochia; for pest or weed control at 500 g/ha: 500 g ai/ha, visual injury vs untreated controls after approximately 10 d, read-out: Kochia plant response rating (0 to 100 scale where 0 is no effect and 100 is complete control); for pest or weed control at 500 g/ha / pest or weed control at 31 g/ha: Preemergence; for pest or weed control at 31 g/ha: 31 g ai/ha, 0 to 100 scale (0 no effect, 100 complete control)
Outline: as §2

[6] = system: pigweed (Amaranthus retroflexus); test: Test A preemergence; settings: Amaranthus retroflexus, pre-emergence, 240 h; for pest or weed control at 125 g/ha: 125 g ai/ha, preemergence, visual rating after approx. 10 d, 0 to 100 scale where 0 is no effect and 100 is complete control; for pest or weed control at 125 g/ha / pest or weed control at 31 g/ha: read-out: Plant response rating, Pigweed; for pest or weed control at 500 g/ha: 500 g ai/ha, visual injury vs untreated controls after approximately 10 d, read-out: Pigweed plant response rating (0 to 100 scale where 0 is no effect and 100 is complete control); for pest or weed control at 500 g/ha / pest or weed control at 31 g/ha: Preemergence; for pest or weed control at 31 g/ha: 31 g ai/ha, 0 to 100 scale (0 no effect, 100 complete control)
[7] = system: ragweed (common ragweed, Ambrosia elatior); test: Test A preemergence; settings: Ambrosia artemisiifolia, pre-emergence, 240 h; for pest or weed control at 125 g/ha: 125 g ai/ha, preemergence, visual rating after approx. 10 d, 0 to 100 scale where 0 is no effect and 100 is complete control; for pest or weed control at 125 g/ha / pest or weed control at 31 g/ha: read-out: Plant response rating, Ragweed; for pest or weed control at 500 g/ha: 500 g ai/ha, visual injury vs untreated controls after approximately 10 d, read-out: Ragweed plant response rating (0 to 100 scale where 0 is no effect and 100 is complete control); for pest or weed control at 500 g/ha / pest or weed control at 31 g/ha: Preemergence; for pest or weed control at 31 g/ha: 31 g ai/ha, 0 to 100 scale (0 no effect, 100 complete control)
Outline: as §2

[8] = system: giant foxtail (Setaria faberii); test: Test A preemergence; settings: Setaria faberi, pre-emergence, 240 h; for pest or weed control at 125 g/ha: 125 g ai/ha, preemergence, visual rating after approx. 10 d, 0 to 100 scale where 0 is no effect and 100 is complete control; for pest or weed control at 125 g/ha / pest or weed control at 31 g/ha: read-out: Plant response rating, Foxtail, Giant; for pest or weed control at 500 g/ha: 500 g ai/ha, visual injury vs untreated controls after approximately 10 d, read-out: Foxtail, Giant plant response rating (0 to 100 scale where 0 is no effect and 100 is complete control); for pest or weed control at 500 g/ha / pest or weed control at 31 g/ha: Preemergence; for pest or weed control at 31 g/ha: 31 g ai/ha, 0 to 100 scale (0 no effect, 100 complete control)
Outline: as §2

[9] = system: barnyardgrass (Echinochloa crus-galli); test: Test A preemergence; settings: Echinochloa crus-galli, pre-emergence, 240 h; for pest or weed control at 125 g/ha: 125 g ai/ha, preemergence, visual rating after approx. 10 d, 0 to 100 scale where 0 is no effect and 100 is complete control; for pest or weed control at 125 g/ha / pest or weed control at 31 g/ha: read-out: Plant response rating, Barnyardgrass; for pest or weed control at 500 g/ha: 500 g ai/ha, visual injury vs untreated controls after approximately 10 d, read-out: Barnyardgrass plant response rating (0 to 100 scale where 0 is no effect and 100 is complete control); for pest or weed control at 500 g/ha / pest or weed control at 31 g/ha: Preemergence; for pest or weed control at 31 g/ha: 31 g ai/ha, 0 to 100 scale (0 no effect, 100 complete control)
Outline: as §2

Kochia (Kochia scoparia) [10] = test: Test A postemergence; settings: Bassia scoparia, post-emergence, 240 h, read-out: Plant response rating, Kochia; for pest or weed control at 125 g/ha: 125 g ai/ha, postemergence, visual injury after approximately 10 d, 0 to 100 scale (0 no effect, 100 complete control); for pest or weed control at 31 g/ha: Postemergence, 31 g ai/ha, visual injury after approx. 10 d, 0 to 100 scale, 0 no effect, 100 complete control
Outline: as §2

[11] = system: ragweed (common ragweed, Ambrosia elatior); test: Test A postemergence; settings: Ambrosia artemisiifolia, post-emergence, 240 h, read-out: Plant response rating, Ragweed; for pest or weed control at 125 g/ha: 125 g ai/ha, postemergence, visual injury after approximately 10 d, 0 to 100 scale (0 no effect, 100 complete control); for pest or weed control at 31 g/ha: Postemergence, 31 g ai/ha, visual injury after approx. 10 d, 0 to 100 scale, 0 no effect, 100 complete control
Outline: as §2

[12] = system: giant foxtail (Setaria faberii); test: Test A postemergence; settings: Setaria faberi, post-emergence, 240 h, read-out: Plant response rating, Foxtail, Giant; for pest or weed control at 125 g/ha: 125 g ai/ha, postemergence, visual injury after approximately 10 d, 0 to 100 scale (0 no effect, 100 complete control); for pest or weed control at 31 g/ha: Postemergence, 31 g ai/ha, visual injury after approx. 10 d, 0 to 100 scale, 0 no effect, 100 complete control
Outline: as §2

[13] = system: barnyardgrass (Echinochloa crus-galli); test: Test A postemergence; settings: Echinochloa crus-galli, post-emergence, 240 h, read-out: Plant response rating, Barnyardgrass; for pest or weed control at 125 g/ha: 125 g ai/ha, postemergence, visual injury after approximately 10 d, 0 to 100 scale (0 no effect, 100 complete control); for pest or weed control at 31 g/ha: Postemergence, 31 g ai/ha, visual injury after approx. 10 d, 0 to 100 scale, 0 no effect, 100 complete control
Outline: as §2

[14] = system: blackgrass (Alopecurus myosuroides); test: Test A postemergence; settings: Alopecurus myosuroides, post-emergence, 240 h, read-out: Plant response rating, Blackgrass; for pest or weed control at 125 g/ha: 125 g ai/ha, postemergence, visual injury after approximately 10 d, 0 to 100 scale (0 no effect, 100 complete control); for pest or weed control at 31 g/ha: Postemergence, 31 g ai/ha, visual injury after approx. 10 d, 0 to 100 scale, 0 no effect, 100 complete control
Outline: as §2

Compound	pest or weed control at 250 g/ha [1] [%]	pest or weed control at 250 g/ha (rice (Oryra sativa)) [%]	pest or weed control at 250 g/ha [2] [%]	pest or weed control at 250 g/ha [3] [%]	pest or weed control at 125 g/ha [4] [%]	pest or weed control at 500 g/ha [4] [%]	pest or weed control at 125 g/ha (Kochia (Kochia scoparia) [5]) [%]	pest or weed control at 500 g/ha (Kochia (Kochia scoparia) [5]) [%]	pest or weed control at 125 g/ha [6] [%]	pest or weed control at 500 g/ha [6] [%]	pest or weed control at 125 g/ha [7] [%]	pest or weed control at 500 g/ha [7] [%]	pest or weed control at 125 g/ha [8] [%]	pest or weed control at 500 g/ha [8] [%]	pest or weed control at 125 g/ha [9] [%]	pest or weed control at 125 g/ha (Kochia (Kochia scoparia) [10]) [%]	pest or weed control at 125 g/ha [11] [%]	pest or weed control at 125 g/ha [12] [%]	pest or weed control at 125 g/ha [13] [%]	pest or weed control at 125 g/ha [14] [%]	further results
O=C1NC[C@H](c2ccc3c(c2)CCO3)[C@H]1C(=O)Nc1cccc(F)c1F [Compound 785]	0	0	40	90	0	40	20	40	0	20	0	0	90	90	90	0	0	70	90	20	pest or weed control at 500 g/ha [9]: 90%
Cc1cc([C@H]2CNC(=O)[C@@H]2C(=O)Nc2ccc(F)cc2F)ccc1Cl [Compound 791]	0	0	0	100	0	20	50	60	0	0	0	40	50	90	90	20	0	30	60	0	pest or weed control at 500 g/ha [9]: 90%
C/C=C/C1CNC(=O)C1C(=O)Nc1ccccc1F (stereo not shown) [Compound 792]	0	0	0	0	0	–	0	–	0	–	0	–	0	–	0	0	0	0	0	0	pest or weed control at 31 g/ha [4]: 0%; pest or weed control at 31 g/ha (Kochia (Kochia scoparia) [5]): 0%; pest or weed control at 31 g/ha [6]: 0%; pest or weed control at 31 g/ha [7]: 0%; pest or weed control at 31 g/ha [8]: 0%; pest or weed control at 31 g/ha [9]: 0%; pest or weed control at 31 g/ha (Kochia (Kochia scoparia) [10]): 0%; pest or weed control at 31 g/ha [11]: 0%; pest or weed control at 31 g/ha [12]: 0%; pest or weed control at 31 g/ha [13]: 0%; pest or weed control at 31 g/ha [14]: 0%
O=C1NCC[C@H](c2ccc(Cl)cc2)[C@H]1C(=O)Nc1cccc(F)c1F [Compound 795]	0	0	0	70	0	–	0	–	0	–	0	–	70	–	80	0	0	50	70	0	pest or weed control at 31 g/ha [4]: 0%; pest or weed control at 31 g/ha (Kochia (Kochia scoparia) [5]): 0%; pest or weed control at 31 g/ha [6]: 0%; pest or weed control at 31 g/ha [7]: 0%; pest or weed control at 31 g/ha [8]: 0%; pest or weed control at 31 g/ha [9]: 30%; pest or weed control at 31 g/ha (Kochia (Kochia scoparia) [10]): 0%; pest or weed control at 31 g/ha [11]: 0%; pest or weed control at 31 g/ha [12]: 0%; pest or weed control at 31 g/ha [13]: 20%; pest or weed control at 31 g/ha [14]: 0%
